The values below come from patent US9382215B2, “Therapeutic methods and agents for treating myotonic dystrophy” (The Board of Trustees of the University of Illinois, priority 2012, dated 2016).

One data set has as its target T1, MBNL1-CUG interaction (Homo sapiens, UniProt Q9NR56).
T1 construct: An expression vector for MBNL1N (1-272 aminoacids) was obtained from Maurice S. Swanson; hexahis; made in house
T1 sequence (Q9NR56 1-272): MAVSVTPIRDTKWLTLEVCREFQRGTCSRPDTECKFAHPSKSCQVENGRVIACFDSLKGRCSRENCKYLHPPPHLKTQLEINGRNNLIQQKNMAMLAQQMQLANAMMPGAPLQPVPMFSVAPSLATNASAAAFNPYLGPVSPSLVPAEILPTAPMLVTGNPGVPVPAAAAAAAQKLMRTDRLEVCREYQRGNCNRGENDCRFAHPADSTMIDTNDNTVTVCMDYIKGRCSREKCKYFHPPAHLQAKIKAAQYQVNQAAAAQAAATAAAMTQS
As to the kind of experiment: Electrophoretic mobility shift assay (EMSA) of inhibition of MBNL1-CUG interaction. It counts as biochemical. Here is the method: (§1) RNA was labeled with [γ-^32P]ATP using T4 polynucleotide kinase (New England Biolabs). Labeled RNA (5 μL, 0.5 nM) was heated at 95° C. for 2 min and then placed on ice for 10 min and diluted to 125 μL in RNA storage buffer (66 mM NaCl, 6.7 mM MgCl2, and 27 mM Tris.HCl (pH 7.5). If required for the experiment, tRNA was added to the RNA solution to give a final concentration of approximately 8 μM. The protein (MBNL1N) was serially diluted in binding buffer (175 mM NaCl, 5 mM MgCl2, 20 mM Tris.HCl (pH 7.5), 1.25 mM BME, 12.5% glycerol, 2 mg/mL BSA, and 0.1 mg/mL heparin), and 5 μL of protein solution was added to 5 μL of RNA solution (Warf and Berglund, RNA, 2007, 13, 2238-2251). The reaction mixture was incubated at room temperature for 25 min and loaded onto a 6% polyacrylamide gel (80:1) at 4° C. The gels were run for 1 hour at 360V in 22.5 mM Tris-borate buffer (pH 8). Gels were visualized on a Molecular Dynamics Storm phosphorimager. The apparent Kd values were obtained by fitting fraction RNA bound versus protein concentration using the following equation: fraction bound=1/(1+(Kd/[P]T)). All binding measurements were performed with a greater than 10-fold excess of protein over RNA in each binding reaction used to determine the Kd so that [P] would be approximately equal to [P]total.
The inhibition of the MBNL1N-RNA complex was investigated using the above procedure except that the small molecule was added to the RNA-protein complex after 25 min of incubation. The reaction mixture was incubated for an additional 10-15 minutes at room temperature (˜23° C.). The inhibition assays were performed in the presence of 10% DMSO. To determine IC50 values, the free RNA versus small molecule concentration was fit to the equation: B=ΔB exp((−0.69/IC50)C)+Bf. B is the volume of the free RNA band in the gel, ΔB is the difference between the volumes of the free RNA bands at the lowest and highest concentrations of small molecule (Bi−Bf), C is the concentration of the small molecule, and IC50 is the concentration of small molecule at which B=(½ΔB)+Bf. […]
A general note: A gel shift assay detects complexes by their altered migration in electrophoresis.

For a further data set, the system named is MBNL1-CUG foci. Briefly: Confocal microscopy of MBNL1-CUG foci in HeLa cells transfected with GFP-MBNL1 and DMPK (CUG)960. It counts as cell-based. The conditions noted are these: HeLa cells containing (CUG)960, confocal microscopy, preliminary results. The source says: In various embodiments, the compounds described herein can form MBNL1-CUG foci inside the nucleus for cells containing expanded CUG repeats.

A further data set has as its target CTG repeats. Briefly: Binding to CTG repeats. Here is the method:
(§2) Isothermal titration calorimetry measurements were performed at 25° C. on a MicroCal VP-ITC (MicroCal, Inc., Northampton, Mass.). A standard experiment consisted of titrating 10 μL of a 500 μM ligand from a 250 μL syringe (rotating at 300 rpm) into a sample cell containing 1.42 mL of a 20 μM DNA/RNA solution. The duration of the injection was set to 24 s, and the delay between injections was 300 s. The initial delay prior to the first injection was 60 s. To derive the heat associated with each injection, the area under each isotherm (microcalories per second versus seconds) was determined by integration by the graphing program Origin 5.0 (MicroCal, Inc. Northampton, Mass.). […] In many cases, additional sites are not detected by Job plot analysis and likely represent low-affinity sites. […]
(§3) A cell sample (250 μL) of 0.2 μM a compound of interest (in 20 mM MOPS pH 7.0, 300 mM NaCl) was excited at 310 nm (excitation slit of 4 nm) and emission recorded between 470-530 nm (emission slit of 8 nm) monitoring the maximum at 495 nm. […] The sample was then allowed to equilibrate for 15 min and the fluorescence emission recorded. The decrease in fluorescence with increased DNA/RNA was monitored until the binding sites became saturated and the fluorescence change was no longer evident. […]

A further data set is described as follows: Water solubility. It counts as physicochemical.
For another data set, the target named is T2, MBNL1N-(CUG)4 RNA (Homo sapiens, UniProt Q9NR56).
T2 construct: An expression vector for MBNL1N (1-272 aminoacids) was obtained from Maurice S. Swanson; hexahis; made in house
T2 sequence (Q9NR56 1-272): T1 sequence (Q9NR56 1-272)
As to the kind of experiment: Inhibition of MBNL1N binding to (CUG)4 RNA in the presence of competitor tRNA. Format: biochemical. Here is the method: as §1, with “[P]total. […]” for “[P]total.”

The subject of a further data set is mice. Briefly: Tolerability in mice, intraperitoneal injection. It counts as in vivo. The conditions noted are these: 100 mg/kg. Here is the method: (§4) The compounds are found to be non-toxic among different cell types tested, including DM1 patient cells and 3T3 mouse fibroblasts. In one experiment, three mice each were evaluated at 5, 10, 20 50, and 100 mg/kg of compound 1, given by intraperitoneal injection.

A short description of data set [1]: Tolerability in mice, intraperitoneal injection. It counts as in vivo. Particulars: mouse, in vivo, ip, mice, 5-100 mg/kg tested, read-out: maximum tolerated dose. Here is the method: as §4
A further data set deals with CUG repeats. Briefly: Binding to CUG repeats. Here is the method:
as §2, §3

Another data set addresses T3, MBNL1N-(CUG)12 RNA (Homo sapiens, UniProt Q9NR56).
T3 construct: An expression vector for MBNL1N (1-272 aminoacids) was obtained from Maurice S. Swanson; hexahis; made in house
T3 sequence (Q9NR56 1-272): T1 sequence (Q9NR56 1-272)
As to the kind of experiment: Inhibition of MBNL1N binding to (CUG)12 RNA in the presence of competitor tRNA. Format: biochemical. Here is the method:
as §1, with “[P]total. […]” for “[P]total.”

The next data set deals with 3T3 mouse fibroblast. As to the kind of experiment: Toxicity / cell viability in 3T3 mouse fibroblasts. It counts as cell-based.

One may read the IC50 as the concentration that gives 50% inhibition. The term Ki denotes a dissociation constant, usually derived from enzyme kinetics or from competition with a known ligand. By cell viability is commonly meant the share of living cells, or the viability signal relative to a control. The low end stands for a greater loss of cells, the high end for better survival. Turning to `N=C(NCCCCNc1nc(N)nc(N)n1)c1ccc(C(=N)NCCCCNc2nc(N)nc(N)n2)cc1` [Compound 1, N^1,N^4-bis(4-((4,6-diamino-1,3,5-triazin-2-yl)amino)butyl)terephthalimidamide], the IC50 at MBNL1-CUG interaction (EMSA) is 11 µM. For the same compound, the Ki on MBNL1-CUG interaction (EMSA, read-out: inhibition constant (Ki) for MBNL1-CUG interaction) was found to be 0.177 µM. In addition, the “inhibitory ability in EMSA screen compared to other inhibitor compounds (such as compound 5)” value on MBNL1-CUG interaction (same concentration (100 μM)) is recorded as “significantly improved inhibitory ability”. In addition, in the data set on MBNL1-CUG foci, the “disruption of MBNL1-CUG foci in the nucleus” value was “significant disruption of foci”. Also, the “affinity for CTG repeats” value at CTG repeats is on record as “high nanomolar affinity”. In “Water solubility”, the water solubility result is recorded as “improved water solubility”. In addition, the “Ki for inhibition of MBNL1N binding to (CUG)4 RNA” value on MBNL1N-(CUG)4 RNA was “low micromolar”. Moreover, the mice exhibiting neurotoxicity entry in the data set on mice is “two of three”. Further, the MTD in [1] stood at 50 mg/kg. Moreover, the “affinity for CUG repeats” value on CUG repeats is given as “high nanomolar affinity”. For the same compound, the “Ki for inhibition of MBNL1N binding to (CUG)12 RNA” value at MBNL1N-(CUG)12 RNA was “low micromolar”. Besides, the “toxicity towards mouse fibroblasts” value in the data set with 3T3 mouse fibroblast is on record as “non-toxic”. The cell viability with 3T3 mouse fibroblast (100 μM, 3-day incubation) came to 100%.
